# Experimental data reported in article PMC12210654, “Palazestrant, a novel oral Complete Estrogen Receptor Antagonist (CERAN) and Selective Estrogen Receptor Degrader (SERD), in patients with ER+/HER2− advanced or metastatic breast cancer: phase 1/2 study results” (Breast Cancer Research : BCR, 2025).
# “And” between values parts separate entries of the source, which are not always exact repeats. Equal values may be shown once. “Also recorded” adds a separate entry of the source.
# Test: Safety: adverse events (NCI CTCAE v5.0), electrocardiograms
# Format: in vivo, human
# Method: Safety assessments included the monitoring of AEs, clinical laboratory parameters, electrocardiograms, and vital signs. AE severity was graded according to the National Cancer Institute Common Terminology Criteria for Adverse Events (version 5.0).
# All DLT analyses (phase 1a) were performed in patients enrolled in the study during cycle 1 and who either received 75% of the planned palazestrant doses or experienced a DLT during cycle 1. All PK analyses were performed in patients who received at least 1 dose of palazestrant and had adequate postbaseline PK samples for characterization of PK parameters. All safety analyses were performed and PFS assessed in patients who received at least 1 dose of palazestrant. Clinical response (CR or PR) was assessed in patients who received at least 1 cycle of palazestrant, had measurable disease at baseline, and had at least 1 postbaseline tumor assessment. CBR was assessed in patients who received at least 1 cycle of palazestrant, had at least 1 postbaseline tumor assessment, and started their first dose at least 24 weeks before data cutoff. Patients who discontinued study treatment without radiographic progression within 24 weeks from the first dose were not included in the CBR analysis. PK parameters were estimated using conventional noncompartmental methods. For CBR, estimates were accompanied by 2-sided 95% confidence intervals (95% CIs). For PFS, Kaplan–Meier analyses were used to determine medians, event-free rates, and 95% CIs. For all other outcomes, categorical data were analyzed using frequencies and percentages, and continuous data were analyzed using means (standard deviation) or medians (range), as appropriate.
# [1] = any patients treated with palazestrant
smiles,measurement,setting,value
"CCCN1CC(Oc2ccc([C@@H]3c4[nH]c5ccccc5c4C[C@@H](C)N3CC(C)(C)F)cc2)C1 [palazestrant, Palazestrant]","TRAE nausea, any grade",120 mg/day (n = 86),54.7%
same,"TRAE neutropenia, any grade",120 mg/day (n = 86),20.9%
same,"TRAE vomiting, any grade",120 mg/day (n = 86),24.4%
same,grade 3 TRAE fatigue,120 mg/day (n = 86),2.3%
same,grade 3 TRAE nausea,120 mg/day (n = 86),3.5%
same,grade 3 TRAE neutropenia,120 mg/day (n = 86),3.5%
same,grade 3 TRAE vomiting,120 mg/day (n = 86),2.3%
same,grade 4 TEAE acute respiratory failure,120 mg/day (n = 86),1 patients
same,grade 4 TEAE neutropenia,120 mg/day (n = 86),6 patients
same,grade ≥ 3 TEAE neutropenia,120 mg/day (n = 86),10.5%
same,"patients with 3 grade 4 events (pulmonary embolism, diverticulitis, acute left ventricular failure)",120 mg/day (n = 86),1 patient
same,patients with Grade 3 TEAEs,120 mg/day (n = 86),24.4%
same,patients with Grade 3 treatment-related events,120 mg/day (n = 86),11.6%
same,patients with grade 4 TEAEs,120 mg/day (n = 86),9.3%
same,patients with ≥ 1 TEAE of any grade,120 mg/day (n = 86),95.3%
same,Treatment-related grade 4 neutropenia,"120 mg/day (n = 86), 5 patients",5.8% and 6%
same,time of grade 4 neutropenia events after initiation of palazestrant,"120 mg/day, approximately",6-8 weeks
same,treatment discontinuation due to AEs,60 or 120 mg/day (n = 116),6.0%
same,severity of most TEAEs,RP2D of 120 mg/day,grade 1–2; also recorded: grade 1 or 2
same,severity of the majority of TRAEs,RP2D of 120 mg/day,grade 1 or 2
same,TEAE bradycardia,"RP2D, 120 mg/day",9%
same,TEAE photopsia,"RP2D, 120 mg/day",5%
same,grade of all bradycardia and photopsia events,"RP2D, 120 mg/day",grade 1
same,treatment-related diarrhea of any grade,"RP2D, 120 mg/day",13%
same,"treatment-related diarrhea, grade ≥ 3","RP2D, 120 mg/day",no grade ≥ 3 events
same,severity of the majority of TEAEs,all dose-escalation cohorts (30 to 300 mg),grade 1 or 2
same,QTcF values,[1],≤ 500 ms
same,changes in QTcF,[1],no clinically significant changes
same,discontinuations due to AEs assessed as related to palazestrant,of seven patients who discontinued due to AEs,5 patients
same,neutropenia resolved upon treatment discontinuation,"of the 5 patients with treatment-related grade 4 neutropenia, 120 mg/day",2 patients
same,grade 4 neutropenia resolved following discontinuation of palazestrant,of the 6 patients with grade 4 neutropenia,3 patients
same,"TEAE Constipation, Toxicity Grade All","phase 1a, 30 mg (N=5)",1 (20.0)
same,"TEAE Constipation, Toxicity Grade G3","phase 1a, 30 mg (N=5)",0
same,"TEAE Constipation, Toxicity Grade G4","phase 1a, 30 mg (N=5)",0
same,"TEAE Decreased appetite, Toxicity Grade All","phase 1a, 30 mg (N=5)",1 (20.0)
same,"TEAE Decreased appetite, Toxicity Grade G3","phase 1a, 30 mg (N=5)",0
same,"TEAE Decreased appetite, Toxicity Grade G4","phase 1a, 30 mg (N=5)",0
same,"TEAE Diarrhea, Toxicity Grade All","phase 1a, 30 mg (N=5)",2 (40.0)
same,"TEAE Diarrhea, Toxicity Grade G3","phase 1a, 30 mg (N=5)",0
same,"TEAE Diarrhea, Toxicity Grade G4","phase 1a, 30 mg (N=5)",0
same,"TEAE Fatigue, Toxicity Grade All","phase 1a, 30 mg (N=5)",2 (40.0)
same,"TEAE Fatigue, Toxicity Grade G3","phase 1a, 30 mg (N=5)",0
same,"TEAE Fatigue, Toxicity Grade G4","phase 1a, 30 mg (N=5)",0
same,"TEAE Headache, Toxicity Grade All","phase 1a, 30 mg (N=5)",1 (20.0)
same,"TEAE Headache, Toxicity Grade G3","phase 1a, 30 mg (N=5)",0
same,"TEAE Headache, Toxicity Grade G4","phase 1a, 30 mg (N=5)",0
same,"TEAE Maculopapular rash, Toxicity Grade All","phase 1a, 30 mg (N=5)",1 (20.0)
same,"TEAE Maculopapular rash, Toxicity Grade G3","phase 1a, 30 mg (N=5)",0
same,"TEAE Maculopapular rash, Toxicity Grade G4","phase 1a, 30 mg (N=5)",0
same,"TEAE Nausea, Toxicity Grade All","phase 1a, 30 mg (N=5)",2 (40.0)
same,"TEAE Nausea, Toxicity Grade G3","phase 1a, 30 mg (N=5)",0
same,"TEAE Nausea, Toxicity Grade G4","phase 1a, 30 mg (N=5)",0
same,"TEAE Neutropenia, Toxicity Grade G3","phase 1a, 30 mg (N=5)",0
same,"TEAE Neutropenia, Toxicity Grade G4","phase 1a, 30 mg (N=5)",1 (20.0)
same,"TEAE Vomiting, Toxicity Grade All","phase 1a, 30 mg (N=5)",1 (20.0)
same,"TEAE Vomiting, Toxicity Grade G3","phase 1a, 30 mg (N=5)",0
same,"TEAE Vomiting, Toxicity Grade G4","phase 1a, 30 mg (N=5)",0
same,"TEAE Neutropenia, Toxicity Grade All","phase 1a, 30 mg (N=5), includes neutropenia and neutrophil count decreased",1 (20.0)
same,"TEAE Constipation, Toxicity Grade All","phase 1a, 60 mg (N=6)",1 (16.7)
same,"TEAE Constipation, Toxicity Grade G3","phase 1a, 60 mg (N=6)",0
same,"TEAE Constipation, Toxicity Grade G4","phase 1a, 60 mg (N=6)",0
same,"TEAE Decreased appetite, Toxicity Grade All","phase 1a, 60 mg (N=6)",0
same,"TEAE Decreased appetite, Toxicity Grade G3","phase 1a, 60 mg (N=6)",0
same,"TEAE Decreased appetite, Toxicity Grade G4","phase 1a, 60 mg (N=6)",0
same,"TEAE Diarrhea, Toxicity Grade All","phase 1a, 60 mg (N=6)",2 (33.3)
same,"TEAE Diarrhea, Toxicity Grade G3","phase 1a, 60 mg (N=6)",0
same,"TEAE Diarrhea, Toxicity Grade G4","phase 1a, 60 mg (N=6)",0
same,"TEAE Fatigue, Toxicity Grade All","phase 1a, 60 mg (N=6)",3 (50.0)
same,"TEAE Fatigue, Toxicity Grade G3","phase 1a, 60 mg (N=6)",0
same,"TEAE Fatigue, Toxicity Grade G4","phase 1a, 60 mg (N=6)",0
same,"TEAE Headache, Toxicity Grade All","phase 1a, 60 mg (N=6)",1 (16.7)
same,"TEAE Headache, Toxicity Grade G3","phase 1a, 60 mg (N=6)",0
same,"TEAE Headache, Toxicity Grade G4","phase 1a, 60 mg (N=6)",0
same,"TEAE Maculopapular rash, Toxicity Grade All","phase 1a, 60 mg (N=6)",1 (16.7)
same,"TEAE Maculopapular rash, Toxicity Grade G3","phase 1a, 60 mg (N=6)",0
same,"TEAE Maculopapular rash, Toxicity Grade G4","phase 1a, 60 mg (N=6)",0
same,"TEAE Nausea, Toxicity Grade All","phase 1a, 60 mg (N=6)",2 (33.3)
same,"TEAE Nausea, Toxicity Grade G3","phase 1a, 60 mg (N=6)",0
same,"TEAE Nausea, Toxicity Grade G4","phase 1a, 60 mg (N=6)",0
same,"TEAE Neutropenia, Toxicity Grade G3","phase 1a, 60 mg (N=6)",0
same,"TEAE Neutropenia, Toxicity Grade G4","phase 1a, 60 mg (N=6)",0
same,"TEAE Vomiting, Toxicity Grade All","phase 1a, 60 mg (N=6)",1 (16.7)
